{"source": "paper PMC4747340", "about": "“A new class of small molecule estrogen receptor-alpha antagonists that overcome anti-estrogen resistance” (Oncotarget, 2015)", "format_in_all_cases": "cell-based", "key": {"[1]": {"biological_target": "T1, ER Lys449Ala (Homo sapiens, UniProt P03372, K449A)", "T1 construct": "expressed in transfected cells; host or cells: MDA-MB-231", "T1 sequence (P03372 whole entry K449A)": "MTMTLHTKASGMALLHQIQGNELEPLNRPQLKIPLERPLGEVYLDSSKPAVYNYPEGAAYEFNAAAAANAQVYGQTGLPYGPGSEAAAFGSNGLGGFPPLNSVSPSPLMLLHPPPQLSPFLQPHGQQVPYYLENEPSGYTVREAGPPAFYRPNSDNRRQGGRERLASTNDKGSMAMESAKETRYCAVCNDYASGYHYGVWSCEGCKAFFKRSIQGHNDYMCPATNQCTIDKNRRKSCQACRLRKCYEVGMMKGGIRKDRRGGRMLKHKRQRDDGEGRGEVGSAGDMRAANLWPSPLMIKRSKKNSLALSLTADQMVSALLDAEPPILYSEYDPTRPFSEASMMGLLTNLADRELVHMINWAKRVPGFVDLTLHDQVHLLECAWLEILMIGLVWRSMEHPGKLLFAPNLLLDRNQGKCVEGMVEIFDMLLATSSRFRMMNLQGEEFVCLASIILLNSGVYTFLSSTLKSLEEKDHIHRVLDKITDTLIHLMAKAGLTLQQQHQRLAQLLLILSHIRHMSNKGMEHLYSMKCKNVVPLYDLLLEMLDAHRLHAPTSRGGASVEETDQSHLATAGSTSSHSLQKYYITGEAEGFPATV", "assay": "ER mutation analysis, ERE-TK-Luc reporter in transfected MDA-MB-231 cells", "conditions": "MDA-MB-231 transfected with mutant ER, E2 10 nM, 24 hr", "excerpt": "(§1) B., C. Panels B and C show a comparison of the ER interaction of one of our original series of compounds (A7) (B) and one new compounds (48693-K/1) (C). ER is represented by gray ribbon and its residues interacting with the compounds are drawn with wireframe and labeled. […] The hydrogen bond interaction with ARG 394 is shown in green line. […] The cells were harvested for luciferase assays. Luciferase values are expressed as a percent of the +E2 vehicle control and are means ± SEMs of four wells. The data shown in panels D to G are representative of three independent experiments.\n(§2) Subconfluent cells in 24-well dishes were transfected overnight with 0.25 μg of each indicated vector plus the ERE-TK-Luc reporter in serum-free DMEM containing Lipofectamine2000 (Life Technologies, Washington, DC). Total transfected DNA was kept constant by addition of control vector. The cells were washed, incubated in phenol red-free DMEM containing 5% charcoal-stripped serum (obtained from the Tissue Culture Shared Resource) (0.2 ml/well) ± E2 (10 nM) ± the indicated compound for 24-hr, and harvested for luciferase assays. For each assay condition was tested in quadrupicate. To monitor the transfection efficiency, cultures were co-transfected with plasmid pRSV-β-gal (Promega, Madison, WI) to visualize transfected cells by X-gal staining."}, "[2]": {"biological_target": "T2, ER Ile386Ala+Leu387Ala (Homo sapiens, UniProt P03372, I386A/L387A)", "T2 construct": "expressed in transfected cells; host or cells: MDA-MB-231", "T2 sequence (P03372 whole entry I386A/L387A)": "as the sequence (P03372 whole entry K449A) above, with I386A, L387A, A449K counted along it", "assay": "ER mutation analysis, ERE-TK-Luc reporter in transfected MDA-MB-231 cells", "conditions": "MDA-MB-231 transfected with mutant ER, E2 10 nM, 24 hr", "excerpt": "as §1, §2"}, "[3]": {"biological_target": "T3, ER Pro324Ala (Homo sapiens, UniProt P03372, P324A)", "T3 construct": "expressed in transfected cells; host or cells: MDA-MB-231", "T3 sequence (P03372 whole entry P324A)": "as the sequence (P03372 whole entry K449A) above, with P324A, A449K counted along it", "assay": "ER mutation analysis, ERE-TK-Luc reporter in transfected MDA-MB-231 cells", "conditions": "MDA-MB-231 transfected with mutant ER, E2 10 nM, 24 hr", "excerpt": "as §1, §2"}, "[4]": {"biological_target": "T4, ER Glu323Ala (Homo sapiens, UniProt P03372, E323A)", "T4 construct": "expressed in transfected cells; host or cells: MDA-MB-231", "T4 sequence (P03372 whole entry E323A)": "as the sequence (P03372 whole entry K449A) above, with E323A, A449K counted along it", "assay": "ER mutation analysis, ERE-TK-Luc reporter in transfected MDA-MB-231 cells", "conditions": "MDA-MB-231 transfected with mutant ER, E2 10 nM, 24 hr", "excerpt": "as §1, §2"}, "[5]": {"biological_target": "T5, ER Ile326Ala (Homo sapiens, UniProt P03372, I326A)", "T5 construct": "expressed in transfected cells; host or cells: MDA-MB-231", "T5 sequence (P03372 whole entry I326A)": "as the sequence (P03372 whole entry K449A) above, with I326A, A449K counted along it", "assay": "ER mutation analysis, ERE-TK-Luc reporter in transfected MDA-MB-231 cells", "conditions": "MDA-MB-231 transfected with mutant ER, E2 10 nM, 24 hr", "excerpt": "as §1, §2"}, "[6]": {"biological_target": "T6, ER His356Ala (Homo sapiens, UniProt P03372, H356A)", "T6 construct": "expressed in transfected cells; host or cells: MDA-MB-231", "T6 sequence (P03372 whole entry H356A)": "as the sequence (P03372 whole entry K449A) above, with H356A, A449K counted along it", "assay": "ER mutation analysis, ERE-TK-Luc reporter in transfected MDA-MB-231 cells", "conditions": "MDA-MB-231 transfected with mutant ER, E2 10 nM, 24 hr", "excerpt": "as §1, §2"}, "[7]": {"biological_target": "T7, ER Leu327Ala (Homo sapiens, UniProt P03372, L327A)", "T7 construct": "expressed in transfected cells; host or cells: MDA-MB-231", "T7 sequence (P03372 whole entry L327A)": "as the sequence (P03372 whole entry K449A) above, with L327A, A449K counted along it", "assay": "ER mutation analysis, ERE-TK-Luc reporter in transfected MDA-MB-231 cells", "conditions": "MDA-MB-231 transfected with mutant ER, E2 10 nM, 24 hr", "excerpt": "as §1, §2"}, "[8]": {"biological_target": "T8, ER Trp393Ala (Homo sapiens, UniProt P03372, W393A)", "T8 construct": "expressed in transfected cells; host or cells: MDA-MB-231", "T8 sequence (P03372 whole entry W393A)": "as the sequence (P03372 whole entry K449A) above, with W393A, A449K counted along it", "assay": "ER mutation analysis, ERE-TK-Luc reporter in transfected MDA-MB-231 cells", "conditions": "MDA-MB-231 transfected with mutant ER, E2 10 nM, 24 hr", "excerpt": "as §1, §2"}, "[9]": {"biological_target": "T9, ER Arg394Ala (Homo sapiens, UniProt P03372, R394A)", "T9 construct": "expressed in transfected cells; host or cells: MDA-MB-231", "T9 sequence (P03372 whole entry R394A)": "as the sequence (P03372 whole entry K449A) above, with R394A, A449K counted along it", "assay": "ER mutation analysis, ERE-TK-Luc reporter in transfected MDA-MB-231 cells", "conditions": "MDA-MB-231 transfected with mutant ER, E2 10 nM, 24 hr", "excerpt": "as §1, §2"}, "[10]": {"biological_target": "T10, ER Leu387Ala (Homo sapiens, UniProt P03372, L387A)", "T10 construct": "expressed in transfected cells; host or cells: MDA-MB-231", "T10 sequence (P03372 whole entry L387A)": "as the sequence (P03372 whole entry K449A) above, with L387A, A449K counted along it", "assay": "ER mutation analysis, ERE-TK-Luc reporter in transfected MDA-MB-231 cells", "conditions": "MDA-MB-231 transfected with mutant ER, E2 10 nM, 24 hr", "excerpt": "as §1, §2"}, "[11]": {"biological_target": "T11, ER-β (Homo sapiens, UniProt Q92731)", "T11 construct": "host or cells: DU-145", "T11 sequence (Q92731 whole entry)": "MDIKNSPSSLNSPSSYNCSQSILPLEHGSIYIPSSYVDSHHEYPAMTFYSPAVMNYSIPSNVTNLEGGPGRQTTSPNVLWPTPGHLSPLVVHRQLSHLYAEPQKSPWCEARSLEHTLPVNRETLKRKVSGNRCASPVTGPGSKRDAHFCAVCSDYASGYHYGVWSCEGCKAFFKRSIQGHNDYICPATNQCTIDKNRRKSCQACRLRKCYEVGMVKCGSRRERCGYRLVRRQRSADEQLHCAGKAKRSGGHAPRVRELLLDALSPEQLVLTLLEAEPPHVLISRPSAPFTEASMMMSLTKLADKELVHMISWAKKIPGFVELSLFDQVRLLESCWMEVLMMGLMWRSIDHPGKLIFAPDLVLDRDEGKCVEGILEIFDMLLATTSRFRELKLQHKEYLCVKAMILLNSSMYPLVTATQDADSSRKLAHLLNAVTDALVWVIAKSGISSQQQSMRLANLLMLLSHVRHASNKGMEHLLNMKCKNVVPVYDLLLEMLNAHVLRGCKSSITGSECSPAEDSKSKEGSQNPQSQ", "assay": "E2-stimulated ER-β activity, ERE-TK-Luc reporter in transfected DU-145 cells", "procedure": "Figure 12 Compound 35446 inhibits the activity of ER-β Subconfluent proliferating DU-145 cells in 24-well dishes were transfected overnight with the ER=α or ER=β expression vector plus the ERE-TK-Luc reporter plasmid (0.25 μg per plasmid/well), washed, and allowed to recover for several hours in fresh culture medium. The cells were then post-incubated for 24 hr to allow gene expression, after which they were treated ± E2 (10 nM) and ± compound 35446 (20 μM) (or compound B2 as a negative control) for 24 hr and assayed for luciferase activity. Luciferase activity is expressed relative to the no E2 control. Values are means ± SEMs of four replicate wells. The data shown in each panel are representative of three independent experiments.\nTo determine the effect of compound on ER-β activity, an ER- β expression plasmid (cat. no.: 35562, Addgene, Cambridge) was co-transfected into ER- DU-145 human prostate carcinoma cells along with the ERE-TK-Luc reporter plasmid (0.25 μg of each plasmid) and the cells were incubated overnight to allow gene expression. The cells were then treated ± E2 (10 nM) and ± the indicated compound for 24-hr, and harvested for luciferase assays as above."}}}
{"smiles": "O=C(CC(c1ccccc1)N1CCCCC1)c1ccccc1", "note": "(stereo not drawn) [35446-L/1, 1,3-diphenyl-3-(piperidin-1-yl)propan-1-one]", "values": [{"measurement": "IC50", "setting": "[1]", "result": "> 15", "unit": "µM"}, {"measurement": "IC50", "setting": "[2]", "result": "> 15", "unit": "µM"}, {"measurement": "IC50", "setting": "[3]", "result": "> 15", "unit": "µM"}, {"measurement": "IC50", "setting": "[4]", "result": 0.9, "unit": "µM"}, {"measurement": "IC50", "setting": "[5]", "result": 4, "unit": "µM"}, {"measurement": "IC50", "setting": "[6]", "result": 0.8, "unit": "µM"}, {"measurement": "IC50", "setting": "[7]", "result": 0.9, "unit": "µM"}, {"measurement": "IC50", "setting": "[8]", "result": "> 15", "unit": "µM"}, {"measurement": "IC50", "setting": "[9]", "result": "> 15", "unit": "µM"}, {"measurement": "IC50", "setting": "[10]", "result": 5, "unit": "µM"}, {"measurement": "inhibition at 20 µM", "setting": "[11]; DU-145, read-out: inhibition of E2-stimulated ER-β activity", "result": "~67", "unit": "%"}, {"measurement": "IC50", "setting": "[11]; DU-145 transfected with ER-β, E2 10 nM, 24 hr, read-out: IC50 for inhibition of ER-β activity", "result": 2, "unit": "µM"}]}
